Assay results from PubChem BioAssay AID2060501 (Molecular Pharmacology Branch, DTP, NCI, 2025).

Tested on: 282377-053-R-J1-PDC complex spheroids, viability
Experiment: Anticancer human tumor 282377-053-R-J1-PDC patient-derived colon adenocarcinoma cell line growth inhibition [GQUAD]
Conditions: for IC50: curve of first compound; for viability, T/C: stronger effect = lower value
Outline: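 Tumor cells were grown as complex spheroids with HUVEC endothelial cells and mesenchymal stem cells as stroma. G-quadruplex stabilizers were combined with targeted agents over half-log dilutions from near the clinical Cmax, or from 10 microM.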
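Note: spheroids exposed to compounds for 7 days before readout.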
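Throughout, for viability, T/C: percent of vehicle DMSO control viability with 100% = untreated-like growth.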

For `COc1cc(C2c3cc4c(cc3C(OC3OC5COC(C)OC5C(O)C3O)C3COC(=O)C23)OCO4)cc(OC)c1O` (configuration not stated) + Cc1cnc(CNC(=O)c2c(=O)c3ccc(N4CCCN(C)CC4)nc3n3c2sc2ccccc23)cn1, the IC50 (second compound 0.0316 µM) was greater than 10 µM, the IC50 (second compound 0.1 µM) was 9.72 µM and the IC50 (second compound 0.316 µM) was greater than 10 µM. For the same compound, the IC50 (second compound 1 µM) was greater than 10 µM, the IC50 (second compound 3.16 µM) was 0.979 µM and the IC50 (second compound 10 µM) was 0.337 µM. The viability, T/C (second compound 0.0316 µM, first compound 0.0316 µM) was 127%, the viability, T/C (second compound 0.0316 µM, first compound 0.1 µM) was 95% and the viability, T/C (second compound 0.0316 µM, first compound 0.316 µM) was 126%. The viability, T/C (second compound 0.0316 µM, first compound 1 µM) was 90%, the viability, T/C (second compound 0.0316 µM, first compound 3.16 µM) was 68.3% and the viability, T/C (second compound 0.0316 µM, first compound 10 µM) was 50.8%. For the same compound, the viability, T/C (second compound 0.1 µM, first compound 0.0316 µM) was 109%, the viability, T/C (second compound 0.1 µM, first compound 0.1 µM) was 91.3% and the viability, T/C (second compound 0.1 µM, first compound 0.316 µM) was 107%. For the same compound, the viability, T/C (second compound 0.1 µM, first compound 1 µM) was 76.1%, the viability, T/C (second compound 0.1 µM, first compound 3.16 µM) was 72.7% and the viability, T/C (second compound 0.1 µM, first compound 10 µM) was 48.6%. For the same compound, the viability, T/C (second compound 0.316 µM, first compound 0.0316 µM) was 103%, the viability, T/C (second compound 0.316 µM, first compound 0.1 µM) was 91.9% and the viability, T/C (second compound 0.316 µM, first compound 0.316 µM) was 87.1%. The viability, T/C (second compound 0.316 µM, first compound 1 µM) was 68.8%, the viability, T/C (second compound 0.316 µM, first compound 3.16 µM) was 66.4% and the viability, T/C (second compound 0.316 µM, first compound 10 µM) was 50.9%. It also gave a viability, T/C (second compound 1 µM, first compound 0.0316 µM) of 70.7%, a viability, T/C (second compound 1 µM, first compound 0.1 µM) of 51.3% and a viability, T/C (second compound 1 µM, first compound 0.316 µM) of 70.2%. The viability, T/C (second compound 1 µM, first compound 1 µM) was 63%, the viability, T/C (second compound 1 µM, first compound 3.16 µM) was 62.7% and the viability, T/C (second compound 1 µM, first compound 10 µM) was 41.6%. It also gave a viability, T/C (second compound 3.16 µM, first compound 0.0316 µM) of 60.5%, a viability, T/C (second compound 3.16 µM, first compound 0.1 µM) of 57.5% and a viability, T/C (second compound 3.16 µM, first compound 0.316 µM) of 49.8%. It also gave a viability, T/C (second compound 3.16 µM, first compound 1 µM) of 48.5%, a viability, T/C (second compound 3.16 µM, first compound 3.16 µM) of 52.1% and a viability, T/C (second compound 3.16 µM, first compound 10 µM) of 37.4%. For the same compound, the viability, T/C (second compound 10 µM, first compound 0.0316 µM) was 45.4%, the viability, T/C (second compound 10 µM, first compound 0.1 µM) was 49.7% and the viability, T/C (second compound 10 µM, first compound 0.316 µM) was 56.3%. The viability, T/C (second compound 10 µM, first compound 1 µM) was 49.1%, the viability, T/C (second compound 10 µM, first compound 3.16 µM) was 42.1% and the viability, T/C (second compound 10 µM, first compound 10 µM) was 26.3%.
